Reference: ChEMBL document CHEMBL4219207, “Reversible, orally available ADP receptor (P2Y12) antagonists Part I: Hit to lead process” (Bioorg Med Chem Lett, 2018)
pIC50: −log10 of the molar value.

How the values were obtained:
P2Y purinoceptor 12 [1] = target: T1, P2Y purinoceptor 12 (Homo sapiens, UniProt Q9H244); assay: Displacement of [3H]2MeSADP from P2Y12 receptor in human platelets after 60 mins by TopCount scintillation counting method
[2] = Cmax in Sprague-Dawley rat at 2 mg/kg, po via gavage; format: ADME, organism-based; set-up: dose 2 mg/kg, route oral; settings: in vivo
[3] = Oral bioavailability in Sprague-Dawley rat at 2 mg/kg via gavage; format: ADME, organism-based; settings: in vivo
[4] = Plasma concentration in Sprague-Dawley rat at 2 mg/kg, po via gavage after 1 hr using sample obtained from jugular vein; format: ADME, organism-based
[5] = Plasma concentration in Sprague-Dawley rat at 2 mg/kg, po via gavage after 3 hrs using sample obtained from jugular vein; format: ADME, organism-based
[6] = Plasma concentration in Sprague-Dawley rat at 2 mg/kg, po via gavage after 3 hrs using sample obtained from portal vein; format: ADME, organism-based
[7] = Plasma concentration in Sprague-Dawley rat at 2 mg/kg, po via gavage after 1 hr using sample obtained from portal vein; format: ADME, organism-based
P2Y purinoceptor 12 [8] = target: T1, P2Y purinoceptor 12; assay: Competitive/reversible antagonist activity at P2Y12 receptor in platelets (unknown origin) assessed as inhibition of ADP-induced platelet aggregation; format: functional
[9] = Permeability in human Caco2 cells; format: ADME, cell-based; settings: Caco-2, read-out: permeability
[10] = Metabolic stability in dog liver microsomes assessed as parent compound remaining at 3000 nM; format: ADME, Canis lupus familiaris, microsome; settings: read-out: Stability
[11] = Half life in Sprague-Dawley rat at 2 mg/kg, po via gavage; format: ADME, organism-based; settings: in vivo
[12] = Metabolic stability in human liver microsomes assessed as parent compound remaining at 3000 nM; format: ADME, microsome; settings: read-out: Stability
[13] = Metabolic stability in rat liver microsomes assessed as parent compound remaining at 3000 nM; format: ADME, microsome; settings: read-out: Stability

T1 sequence (Q9H244 whole entry): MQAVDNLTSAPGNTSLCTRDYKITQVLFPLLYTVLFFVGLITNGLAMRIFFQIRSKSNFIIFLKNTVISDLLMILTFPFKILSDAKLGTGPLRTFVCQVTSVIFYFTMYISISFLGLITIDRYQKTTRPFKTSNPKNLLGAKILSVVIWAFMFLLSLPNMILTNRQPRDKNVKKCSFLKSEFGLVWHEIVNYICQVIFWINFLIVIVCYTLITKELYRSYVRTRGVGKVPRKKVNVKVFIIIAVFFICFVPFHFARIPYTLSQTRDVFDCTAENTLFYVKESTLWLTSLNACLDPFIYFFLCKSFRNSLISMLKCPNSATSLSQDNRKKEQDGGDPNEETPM

SMILES | pIC50 (P2Y purinoceptor 12 [1]) | also measured
CCOC(=O)N1CCN(C(=O)[C@H](CCCCN)NC(=O)c2cc(OC)c3ccccc3n2)CC1 | 4.59 | 
CCOC(=O)N1CCN(C(=O)[C@H](CO)NC(=O)c2cc(OC)c3ccccc3n2)CC1 | 5.96 | 
CCOC(=O)N1CCN(C(=O)[C@@H](CC(=O)O)NC(=O)c2cc(OC)c3ccccc3n2)CC1 | 4.74 | 
CCOC(=O)N1CCN(C(=O)CNC(=O)c2cc(OC)c3ccccc3n2)CC1 | 6.16 | Cmax [2]: 1200 nM; bioavailability [3]: 42%
CCOC(=O)N1CCN(C(=O)[C@H](CC(=O)O)NC(=O)c2cc(OC)c3ccccc3n2)CC1 | 6.82 | concentration at 1 h [4]: 270 nM; concentration at 3 h [5]: 200 nM; concentration at 3 h [6]: 380 nM; concentration at 1 h [7]: 410 nM
CCOC(=O)N1CCN(C(=O)[C@H](C)NC(=O)c2cc(OC)c3ccccc3n2)CC1 | 5.72 | 
CCOC(=O)N1CCN(C(=O)CNC(=O)c2cc(OCc3ccccc3)c3ccccc3n2)CC1 | < 5.52 | 
CCOC(=O)N1CCN(C(=O)[C@@H](CCC(=O)O)NC(=O)c2cc(OC)c3ccccc3n2)CC1 | 4.66 | 
CCc1ccc(C(=O)N2CCN(C(=O)CNC(=O)c3cc(OC)c4ccccc4n3)CC2)cc1 | 5.74 | 
CCOC(=O)N1CCN(C(=O)CNC(=O)c2cc(OC)c3ccccc3n2)[C@H](C)C1 | 5.35 | 
CCOC(=O)N1CCN(C(=O)[C@H](CCCC(=O)O)NC(=O)c2cc(OC)c3ccccc3n2)CC1 | 6.57 | 
CCOC(=O)N1CCN(C(=O)CNC(=O)c2cc(OC)c3ccccc3n2)C[C@@H]1C | 5.77 | 
CCOC(=O)N1CCN(C(=O)[C@H](Cc2ccccc2)NC(=O)c2cc(OC)c3ccccc3n2)CC1 | 5.07 | 
CCOC(=O)N1CCN(C(=O)[C@H](CCC(=O)O)NC(=O)c2cc(OC)c3ccccc3n2)CC1 | 7.07 | Kb (P2Y purinoceptor 12 [8]): 94 nM; Papp [9]: 0.166 ×10⁻⁶ cm/s; concentration at 1 h [4]: 120 nM; Cmax [2]: 120 nM; remaining at 3 µM [10]: > 90%; half-life [11]: 72 min; concentration at 3 h [5]: 100 nM; remaining at 3 µM [12]: > 90%; concentration at 3 h [6]: 340 nM; remaining at 3 µM [13]: > 90%; concentration at 1 h [7]: 340 nM
CCOC(=O)N1CCN(C(=O)CNC(=O)c2cc(OCC)c3ccccc3n2)CC1 | 6.08 | 
CCCOc1cc(C(=O)NCC(=O)N2CCN(C(=O)OCC)CC2)nc2ccccc12 | 6.28 | 
CCOC(=O)N1CCN(C(=O)CNC(=O)c2cc(OC)c3ccccc3n2)C[C@H]1C | 5.37 | 
CCOC(=O)N1CCN(C(=O)[C@H](COCC(=O)O)NC(=O)c2cc(OC)c3ccccc3n2)CC1 | 6.70 | 
COc1cc(C(=O)NCC(=O)N2CCN(C(=O)NC(C)(C)C)CC2)nc2ccccc12 | 6.04 | 
CCOC(=O)N1CCN(C(=O)[C@@H](NC(=O)c2cc(OC)c3ccccc3n2)C(C)C)CC1 | 5.82 | 
CCOC(=O)N1CCN(C(=O)CNC(=O)c2cc(O)c3ccccc3n2)CC1 | < 5.70 | 

More lines, main results first:

pIC50 (P2Y purinoceptor 12 [1]) | SMILES | also measured
5.60 | CCOC(=O)N1CCN(C(=O)[C@H](CCC(N)=O)NC(=O)c2cc(OC)c3ccccc3n2)CC1 | 
5.96 | CCOC(=O)N1CCN(C(=O)CNC(=O)c2cc(OC)c3ccccc3n2)[C@@H](C)C1 | 
< 5.52 | COC(=O)N1CCN(C(=O)CNC(=O)c2cc(OC)c3ccccc3n2)CC1 | 
5.96 | CCOC(=O)N1CCN(C(=O)[C@H](CC(=O)NCC(=O)O)NC(=O)c2cc(OC)c3ccccc3n2)CC1 | 
5.10 | CCOC(=O)N1CCN(C(=O)[C@H](Cc2c[nH]c3ccccc23)NC(=O)c2cc(OC)c3ccccc3n2)CC1 | 
5.68 | CCOC(=O)N1CCN(C(=O)[C@H](CC(N)=O)NC(=O)c2cc(OC)c3ccccc3n2)CC1 | 
6.05 | COc1cc(C(=O)NCC(=O)N2CCN(c3cccc(C)c3)CC2)nc2ccccc12 | 
6.07 | CCOC(=O)N1CCN(C(=O)CNC(=O)C=C2c3ccccc3-c3ccccc32)CC1 | Cmax [2]: 2700 nM
5.74 | CCOC(=O)N1CCN(C(=O)CNC(=O)c2ccc3ccccc3c2)CC1 | Cmax [2]: 1500 nM
6.72 | CCOC(=O)N1CCN(C(=O)[C@@H](CSCC(=O)O)NC(=O)c2cc(OC)c3ccccc3n2)CC1 | 
4.85 | CCOC(=O)N1CCN(C(=O)[C@@H](C)NC(=O)c2cc(OC)c3ccccc3n2)CC1 | 
5.82 | CCOC(=O)N1CCN(C(=O)[C@H](Cc2cnc[nH]2)NC(=O)c2cc(OC)c3ccccc3n2)CC1 | 
4.68 | CCOC(=O)N1CCN(C(=O)CN(C)C(=O)c2cc(OC)c3ccccc3n2)CC1 | 
5.92 | CCCCCC(=O)N1CCN(C(=O)CNC(=O)c2cc(OC)c3ccccc3n2)CC1 | 
